Source: article PMC10498151 (RSC Advances, 2023)
≈ marks a conversion by molar mass, not a printed value. Read-outs that look alike come from different tables or passages of the source.

Columns and labels:
[1] = determined in PBS buffer ref 47; cited from earlier work
[2] = system: Porphyromonas gingivalis (ATCC 33277); assay: microbe, parasite or virus in culture; format: cell-based
[3] = system: Clostridium sordellii (CI); format: cell-based
Porphyromonas sp. (CI) = assay: microbe, parasite or virus in culture; format: cell-based
Fusobacterium nucleatum = assay: microbe, parasite or virus in culture; format: cell-based
Finegoldia magna (CI) = assay: microbe, parasite or virus in culture; format: cell-based
[4] = system: Other Bacteroides spp. and Parabacteroides; format: cell-based, Bacteroides spp. and Parabacteroides distasonis
Clostridium difficile = assay: microbe, parasite or virus in culture; format: cell-based
Clostridium perfringens = format: cell-based
[5] = system: Actinomyces odontolyticus (CI); format: cell-based
Bacteroides fragilis = assay: microbe, parasite or virus in culture; format: cell-based
Prevotella spp. = format: cell-based
[6] = system: Parvimonas micra (ATCC 3870); assay: microbe, parasite or virus in culture; format: cell-based
[7] = cited from earlier work
[8] = system: Clostridium butyricum (CI); assay: microbe, parasite or virus in culture; format: cell-based
[9] = system: Eggerthella lenta (ATCC 43055); assay: microbe, parasite or virus in culture; format: cell-based; details: ATCC43055
[10] = system: Bacteroides ovatus (ATCC 84834); assay: microbe, parasite or virus in culture; format: cell-based; details: ATCC84834
[11] = system: Peptostreptococcus anaerobius (CI); assay: microbe, parasite or virus in culture; format: cell-based
[12] = system: Prevotella intermedia/nigres-cens (ATCC 25611); assay: microbe, parasite or virus in culture; format: cell-based, Prevotella intermedia/nigrescens; details: ATCC25611
[13] = system: Bacteroides thetaiotaomicron (ATCC 29148); assay: microbe, parasite or virus in culture; format: cell-based; details: ATCC29148
[14] = system: Porphyromonas asaccharolytica (CI); assay: microbe, parasite or virus in culture; format: cell-based
[15] = system: Clostridium sporogenes (ATCC 3584); assay: microbe, parasite or virus in culture; format: cell-based; details: ATCC3584
Cutibacterium acnes = assay: microbe, parasite or virus in culture; format: cell-based
Fusobacterium mortiferum = assay: microbe, parasite or virus in culture; format: cell-based
C. difficile = C. difficile infection, review ref 25; cited from earlier work
[16] = Porphyromonas gingivalis, ATCC33277
[17] = Fusobacterium nucleatum, ATCC25586
[18] = Clostridioides difficile, ATCC43255
[19] = Bacteroides fragilis, ATCC25285

Compound	Selectivity index (>100 μg mL^−1/MIC90) (Fusobacterium nucleatum)	Selectivity index (>100 μg mL^−1/MIC90) [4]	Selectivity index (>100 μg mL^−1/MIC90) (Clostridium perfringens)	Selectivity index (>100 μg mL^−1/MIC90) (Bacteroides fragilis)	Selectivity index (>100 μg mL^−1/MIC90) (Prevotella spp.)	MIC [8] [µg/mL]	MIC [9] [µg/mL]	MIC [10] [µg/mL]	MIC (Porphyromonas sp. (CI); Porphyromonas) [µg/mL]	MIC [11] [µg/mL]	MIC (Fusobacterium nucleatum; [17]) [µg/mL]	MIC (Finegoldia magna (CI); Finegoldia magna) [µg/mL]	MIC [12] [µg/mL]	MIC [13] [µg/mL]	MIC (Clostridium difficile; [18]) [µg/mL]	MIC (Bacteroides fragilis; [19]) [µg/mL]	MIC [14] [µg/mL]	MIC ([6]; Parvimonas micra, ATCC3870) [µg/mL]	MIC [15] [µg/mL]	further results
5-phenyl-2,3-dihydropyrimidoquinoxaline N-oxide [1a]	>100	>100	>6	>100	>100	–	–	–	–	–	–	–	–	–	–	–	–	–	–	logP: experimental log of the octanol/water partition coefficient [1]: −0.149; MIC [2]: ≤0.06 µg/mL; MIC [3]: 16 µg/mL; Cell viability (RAW 264.7 cells): 98%; MIC (Porphyromonas sp. (CI)): 0.125 µg/mL; MIC (Fusobacterium nucleatum): 0.125 µg/mL; MIC (Finegoldia magna (CI)): 2 µg/mL; MIC (Clostridium difficile): 4 µg/mL; Selectivity index (>100 μg mL^−1/MIC90) (Clostridium difficile): >25; MIC [5]: 32 µg/mL; MIC (Bacteroides fragilis): 1 µg/mL; MIC [6]: 0.125 µg/mL
O=[N+]([O-])c1ccc(C2=NCCCN2c2ccccc2)cc1 [1-phenyl-2-4-nitrophenyl-1,4,5,6-tetrahydropyrimidine]	–	–	–	–	–	–	–	–	–	–	–	–	–	–	–	–	–	–	–	pKa [7]: 10.51
[O-][N+]1=C(c2ccc(Cl)cc2)C2=NCCN2c2ccccc21 [1j, 4-(4-Chlorophenyl)-1,2-dihydroimidazo[1,2-a]quinoxaline 5-oxide]	>800	>800	>100	>800	>1667	≤ 0.06	≤ 0.06	0.125 (≈ 0.42 µM)	≤ 0.06	0.25 (≈ 0.84 µM)	≤ 0.06	0.25 (≈ 0.84 µM)	≤ 0.06	0.125 (≈ 0.42 µM)	0.25 (≈ 0.84 µM)	0.125 (≈ 0.42 µM)	≤ 0.06	≤ 0.06	0.25 (≈ 0.84 µM)	logP: experimental log of the octanol/water partition coefficient [1]: 1.292; MIC [2, 16]: ≤ 0.06 µg/mL
O=[N+]([O-])c1ccc(C2=[N+]([O-])c3ccccc3N3CCN=C23)cc1 [1k, 4-(4-Nitrophenyl)-1,2-dihydroimidazo[1,2-a]quinoxaline 5-oxide]	>1667	>1667	>800	>1667	>1667	≤ 0.06	≤ 0.06	≤ 0.06	≤ 0.06	≤ 0.06	≤ 0.06	1 (≈ 3.24 µM)	≤ 0.06	≤ 0.06	≤ 0.06	≤ 0.06	≤ 0.06	≤ 0.06	≤ 0.06	MIC (Cutibacterium acnes): 32 µg/mL (≈ 104 µM); Selectivity index (IS) (RAW 264.7 cells): > 800; Selectivity index (>100 μg mL^−1/MIC90) (Clostridium difficile): >1667
Cc1ncc([N+](=O)[O-])n1CCO [Mtz, metronidazole, reference compound]	–	–	–	–	–	≤ 0.06	0.25 (≈ 1.46 µM)	1 (≈ 5.84 µM)	0.125 (≈ 0.73 µM)	0.125 (≈ 0.73 µM)	0.125 (≈ 0.73 µM)	0.125 (≈ 0.73 µM)	1 (≈ 5.84 µM)	1 (≈ 5.84 µM)	0.25 (≈ 1.46 µM)	0.25 (≈ 1.46 µM)	0.25 (≈ 1.46 µM)	0.125 (≈ 0.73 µM)	0.25 (≈ 1.46 µM)	MIC (Cutibacterium acnes): > 64 µg/mL; MIC [2, 16]: ≤ 0.06 µg/mL; MIC (Fusobacterium mortiferum): 0.25 µg/mL (≈ 1.46 µM); recurrence after treatment (C. difficile): 27.1%; treatment failure (C. difficile): 22.4%
O=[N+]([O-])c1ccc(C2=NCCN2c2ccccc2)cc1 [its imidazoline homologue]	–	–	–	–	–	–	–	–	–	–	–	–	–	–	–	–	–	–	–	pKa [7]: 7.65
CN[C@H](CC(C)C)C(=O)N[C@H]1C(=O)N[C@@H](CC(N)=O)C(=O)N[C@H]2C(=O)N[C@H]3C(=O)N[C@H](C(=O)N[C@H](C(=O)O)c4cc(O)cc(O)c4-c4cc3ccc4O)[C@H](O)c3ccc(c(Cl)c3)Oc3cc2cc(c3O[C@@H]2O[C@H](CO)[C@@H](O)[C@H](O)[C@H]2O[C@H]2C[C@](C)(N)[C@H](O)[C@H](C)O2)Oc2ccc(cc2Cl)[C@H]1O [vancomycin]	–	–	–	–	–	–	–	–	–	–	–	–	–	–	–	–	–	–	–	recurrence after treatment (C. difficile): 24.0%; treatment failure (C. difficile): 14.2%
